{"source": "patent US8278100B2", "about": "“Lasonolide compounds as reagents for inducing premature chromosome condensation and methods for treating disorders” (The United States of America, as Represented by the …, priority 2008, dated 2012)", "key": {"human lymphocytes": {"tested_on": "human lymphocytes", "experiment": "PCC induction and PI staining", "format": "cell-based", "conditions": "200 nM Lasonolide A, without additional reagents"}, "tumor cells": {"tested_on": "tumor cells", "experiment": "Premature chromosome condensation (PCC) induction, cells not specified", "format": "cell-based", "experimental": "Burkitt's Lymphoma CA46 cells (500,000) (FIG. 1B) or breast cancer MDA-MB-231 cells (500,000) (FIG. 1A) were treated by 100 nM Lasonolide A (stock solution 100 μM in DMSO) for 1 h. Lymphocytes were treated with 200 nM Lasonolide A for 1 h. Cells were harvested with centrifuging on 2,000 rpm for 5 min at 4° C. Pellets were washed once by PBS and re-suspended in 1 mL PBS. 200 μL cells mixture were added to the chamber for cytospining. Cells were cytospun on 800 rpm for 10 min; slides were fixed in fresh-made 4% paraformaldehyde fixation for 20 min at room temperature, then moved to 70% ethanol for 20 min. Slides were stained with Propidium Iodide (“PI”) (20 μg/mL) and RNase A (100 μg/mL) for 15 min. Slides were washed with PBS for three times and mounted with Vectashield anti-fade mounting media (Vector Laboratories, Inc., Burlingame, Calif.). Images were taken using a Nikon Eclipse TE-300 confocal microscope."}, "[1]": {"tested_on": "chromosome condensation in each phase of the cell cycle", "experiment": "Chromosome spread assay", "format": "cell-based", "experimental": "After the induction of PCC by Lasonolide A, cells were incubated in hypotonic solution (10 mM Tris-HCl [ph 7.4], 40 mM glycerol, 20 mM NaCl, 1 mM CaCl2, 0.5 mM MgCl2) at 37° C. for 15 min. Then followed with cytospining at 1,800 rpm for 10 min and normal PI staining as above (FIG. 1E)."}, "chromatin condensation": {"tested_on": "chromatin condensation", "experiment": "DNase I sensitivity assay", "format": "cell-based", "conditions": "1 h", "experimental": "Cells were treated with different concentrations of Lasonolide A for 1 h and were collected with centrifuging. The centrifuged cells were washed with PBS and fixed with 1.5% PFA for 15 min on ice. After washing by PBS, fresh PBS was added (300 μL) to re-suspend the pellet, then 700 μL 70% EtOH was gently added and the mixture was maintained at −20° C. overnight. The solution was washed by PBS once, then washed by 1× DNase I reaction buffer (500 μL), then incubated in 200 μL Reaction buffer with 4 Units DNase I (2 μL), 37° C., 10 min. The solution was washed by PBS and incubated in 100 μL Polymerase reaction buffer including 16 μM dATP, 16 μM dCTP, 16 μM dGTP, 16 μM dUTP-FITC, 100 unit/mL Polymerase I, 37° C. 60 min. FL1 channel of Green fluorescence signal were measured with flow cytometer (FIG. 1C)."}, "PP1": {"biological_target": "T1, PP1 (Oryctolagus cuniculus, UniProt P62139)", "T1 construct": "purchased Biolabs", "T1 sequence (P62139 whole entry)": "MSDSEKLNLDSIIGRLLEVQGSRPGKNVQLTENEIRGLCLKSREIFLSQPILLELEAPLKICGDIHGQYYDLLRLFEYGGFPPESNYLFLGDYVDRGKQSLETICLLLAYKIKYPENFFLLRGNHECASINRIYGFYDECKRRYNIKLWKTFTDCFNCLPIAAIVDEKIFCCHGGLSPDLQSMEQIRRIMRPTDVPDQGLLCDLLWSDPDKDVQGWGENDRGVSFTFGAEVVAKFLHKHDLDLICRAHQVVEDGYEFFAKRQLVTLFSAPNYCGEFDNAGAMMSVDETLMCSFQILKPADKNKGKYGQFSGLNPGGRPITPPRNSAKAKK", "experiment": "In vitro phosphatase activity assay", "format": "biochemical", "conditions": "compared with Okadaic Acid", "experimental": "(§1) The inhibitory effect of active agents on PP2A or PP1 enzyme activity was determined by measuring the generation of free PO4 from the phosphopeptide RRA(pT)VA, using the molybdate-malachite green-phosphate complex assay. The phosphatase assay was performed in a PP2A-specific reaction buffer [50 mM imidazole (pH 7.2), 0.2 mM EGTA, 0.02% 2-mercaptoethanol, 0.1 mg/mL of bovine serum albumin] using 10 μ/M phosphopeptide substrate and 0.03 Units PP2A (Upstate), or in PP1-specific reaction buffer [50 mM HEPES, 2 mM Dithiothreitol, 0.025% Tween-20, 0.1 mM EGT 100 mM NaCl] together with 100 μM phosphopeptide substrate and 0.03 Units PP1 (Biolabs). Different concentrations of active agents were added in the reaction system. After a 20-min incubation at 30° C., molybdate dye was added, and the amount of free phosphate generated was determined from the optical density at 630 nm (VERSAmax, Molecular Device), using a standard curve for free phosphate. Phosphatase activity was defined as picomoles of free PO4 generated per minute per microgram of protein, and phosphatase activity without drug was defined as 100% (FIGS. 3C & 3D)."}, "PP2A": {"biological_target": "T2, PP2A (Homo sapiens, UniProt P67775)", "T2 construct": "purchased Upstate", "T2 sequence (P67775 whole entry)": "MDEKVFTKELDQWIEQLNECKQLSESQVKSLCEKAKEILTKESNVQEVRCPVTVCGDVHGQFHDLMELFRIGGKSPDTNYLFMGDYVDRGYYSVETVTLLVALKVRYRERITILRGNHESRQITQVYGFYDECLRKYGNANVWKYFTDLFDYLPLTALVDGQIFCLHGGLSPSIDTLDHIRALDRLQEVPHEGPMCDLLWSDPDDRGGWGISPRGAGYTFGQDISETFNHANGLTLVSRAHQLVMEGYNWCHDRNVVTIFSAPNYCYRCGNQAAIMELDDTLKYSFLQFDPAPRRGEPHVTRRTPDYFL", "T2 sequence (P30153 2-589 partner limits assumed)": "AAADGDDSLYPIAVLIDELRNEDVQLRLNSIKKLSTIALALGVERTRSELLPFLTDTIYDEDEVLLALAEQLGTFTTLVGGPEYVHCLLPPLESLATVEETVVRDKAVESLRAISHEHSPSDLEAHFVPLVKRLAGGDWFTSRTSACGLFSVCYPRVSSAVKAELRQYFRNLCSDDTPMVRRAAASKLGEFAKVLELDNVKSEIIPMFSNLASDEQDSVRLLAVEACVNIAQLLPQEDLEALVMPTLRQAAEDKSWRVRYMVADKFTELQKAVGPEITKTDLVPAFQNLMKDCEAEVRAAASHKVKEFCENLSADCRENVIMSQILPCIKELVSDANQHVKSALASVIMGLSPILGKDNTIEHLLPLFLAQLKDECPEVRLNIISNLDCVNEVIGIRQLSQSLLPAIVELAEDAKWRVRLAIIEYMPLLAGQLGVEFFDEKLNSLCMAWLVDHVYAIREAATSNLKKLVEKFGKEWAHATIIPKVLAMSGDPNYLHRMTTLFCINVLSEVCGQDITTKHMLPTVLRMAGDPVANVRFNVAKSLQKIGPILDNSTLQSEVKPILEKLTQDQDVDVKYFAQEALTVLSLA", "experiment": "In vitro phosphatase activity assay", "format": "biochemical", "conditions": "compared with Okadaic Acid", "experimental": "as §1"}, "MDA-MB-231 cells": {"tested_on": "MDA-MB-231 cells", "experiment": "Cell adhesion assay", "format": "cell-based, human", "experimental": "The effect of Lasonolide A on the extracellular matrix-induced cell adhesion was determined as follows. Fibronectin or collagen was diluted in sterile water and applied to 96-well plates overnight at 4° C. Nonspecific binding sites were blocked with 1% bovine serum albumin for 1 h at room temperature. Breast cancer MDA-MB-231 cells were serum starved for 45 min, detached with 2 mmol/L EDTA in PBS, plated in triplicate onto wells in serum-free medium with or without Lasonolide A, and allowed to adhere for 1 h at 37° C. Nonadherent cells were washed away and adherent cells were fixed with 4% paraformaldehyde and stained with 0.1% crystal violet in 2% methanol. Following extensive washing with tap water, dye was extracted with 10% acetic acid and quantified by measuring absorbance at 595 nm on a multiwell spectrophotometer (VersaMax, Molecular Devices). (FIGS. 6A, 6B, & 6D)"}}, "note": "“Also recorded” adds a separate entry of the source."}
{"smiles": "C=C(CCC(C)C)COC(=O)[C@H](O)C/C=C\\C[C@@H]1O[C@@H]2/C=C/C/C=C/C(C)=C\\[C@H]3O[C@@H](C/C=C/C=C/C(=O)O[C@H](C2)[C@@]1(C)CO)C[C@H](O)[C@H]3C", "note": "[Lasonolide A]", "values": [{"measurement": "lymphocytes going to PCC", "setting": "human lymphocytes", "result": 35.5, "unit": "%"}, {"measurement": "reversibility of PCC induction", "setting": "tumor cells", "result": "reversible"}, {"measurement": "time to PCC induction", "setting": "tumor cells; nanomolar concentrations", "result": "≤ 1", "unit": "h"}, {"measurement": "PCC induction compared with Okadaic Acid", "setting": "tumor cells; tumor cells and normal human lymphocytes", "result": "more potent ability of PCC induction"}, {"measurement": "cell cycle phases in which PCC is induced", "setting": "[1]", "result": "induce PCC in each phases of cell cycle; also recorded: induce PCC in each phase of the cell cycle"}, {"measurement": "DNase I sensitivity, fluorescence shift", "setting": "chromatin condensation; 100 nM", "result": "evidence of an effect"}, {"measurement": "DNase I sensitivity, fluorescence shift", "setting": "chromatin condensation; 200 nM", "result": "a greater change, affecting signal amplitude"}, {"measurement": "inhibitory effect on PP1", "setting": "PP1", "result": "weaker inhibitory effect"}, {"measurement": "inhibitory effect on PP2A", "setting": "PP2A", "result": "weaker inhibitory effect"}, {"measurement": "attachment of cells to collagen I", "setting": "MDA-MB-231 cells; collagen I", "result": "blocked; also recorded: reduced"}, {"measurement": "attachment of cells to fibronectin", "setting": "MDA-MB-231 cells; fibronectin", "result": "blocked; also recorded: reduced"}, {"measurement": "cell adhesion / detachment", "setting": "MDA-MB-231 cells; low dose, short-time treatment, nanomolar concentration", "result": "inhibited adhesion; also recorded: detached cells into suspension"}]}
